Data reported in patent US10604509B2, “Nrf2 regulators” (GlaxoSmithKline Intellectual Property Development Limited, priority 2015, dated 2020).
Structures can show the parent of a compound that is named as a salt. Where two headings read alike, the source gives them in different places.

System: NQO1 specific enzyme activity in BEAS-2B cells
Assay: BEAS-2B NQO1 MTT assay
Type: cell-based
Conditions: BEAS-2B cells, 48 hours with compound, MTT readout, read-out: EC50 of NQO1 specific activity induction
Outline: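 BEAS-2B cells treated with compound 48 h at 37° C, 5% CO2, then lysed; NQO1 activity in lysate measured kinetically by MTT cocktail at Absorbance 570 nm over 30 min. EC50 for induction from Delta OD/min versus log concentration, 3-parameter fit; Cell Titer Glo run on lysate aliquot.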

Row | Compound | EC50 (Homo sapiens, BEAS-2B, 48 h) | also measured
1 | CCC1CN(Cc2cc(C(CC(=O)O)c3ccc4c(nnn4C)c3C)ccc2C)Cc2cc(F)ccc2O1 (stereo not shown) [Example 87, 3-(1,4-Dimethyl-1H-benzo[d][1,2,3]triazol-5-yl)-3-(3-((2-ehtyl-7-fluoro-2,3-dihydrobenzo[f][1,4]oxazepin-4(5H)-yl)methyl)-4-methylphenyl)propanoic acid] | 10 to 100 nM | 
2 | CC[C@@H]1CN(Cc2cc([C@@H](c3ccc4c(nnn4C)c3C)C(C)(C)C(=O)OCOP(=O)(O)Oc3ccccc3)ccc2C)Cc2cnccc2O1 [Example 254] |  | EC50 (Homo sapiens): 1 to 10 nM
3 | CCn1nnc2c(C)c([C@H](c3ccc(C)c(Cn4ccnc4CN4CCCCC4)c3)[C@@H](C)C(=O)O)ccc21 [Example 210, (2R,3S)-3-(1-Ethyl-4-methyl-1H-benzo[d][1,2,3]triazol-5-yl)-2-methyl-3-(4-methyl-3-((2-(piperidin-1-ylmethyl)-1H-imidazol-1-yl)methyl)phenyl)propanoic Acid] | 10 to 100 nM | 
4 | CC[C@@H]1CN(Cc2cc([C@H](CC(=O)O)c3ccc4c(nnn4C)c3C)ccc2C)Cc2ncccc2O1 [Example 258, (S)-3-(1,4-dimethyl-1H-benzo[d][1,2,3]triazol-5-yl)-3-(3-(((R)-2-ethyl-2.3-dihydropyrido[2,3-f][1,4]oxazepin-4(5H)-yl)methyl)-4-methylphenyl)propionic Acid] |  | EC50 (Homo sapiens): 10 to 100 nM
5 | CC[C@@H]1CN(Cc2cc(C(c3ccc4c(nnn4C)c3C)C(C)(C)C(=O)O)ccc2C)Cc2ccccc2O1 (stereo partly drawn) [Example 114, 3-(1,4-Dimethyl-1H-benzo[d][1,2,3]triazol-5-yl)-3-(3-(((R)-2-ethyl-2,3-dihydrobenzo[f][1,4]oxazepin-4(5H)-yl)methyl)-4-methylphenyl)-2,2-dimethylpropanoic Acid, Lithium Salt] |  | EC50 (Homo sapiens): 100 to 1000 nM
6 | CC[C@@H]1CN(Cc2cc(C(CCc3cn(CC)nn3)CC(=O)O)ccc2C)Cc2cnccc2O1 (stereo partly drawn) [Example 232, 5-(1-Ethyl-1H-1,2,3-triazol-4-yl)-3-(3-(((R)-2-ethyl-2,3-dihydropyrido[3,4-f][1,4]oxazepin-4(5H)-yl)methyl)-4-methylphenyl)pentanoic Acid] | 100 to 1000 nM | 
7 | CCC1CCN(Cc2nccn2Cc2cc(C(CCc3cn(CC)nn3)C(C)(C)C(=O)O)ccc2C)CC1 (single isomer, unassigned) [Example 250, 5-(1-ethyl-1H-1,2,3-triazol-4-yl)-3-(3-((2-((4-ethylpiperidin-1-yl)methyl)-1H-imidazol-1-yl)methyl)-4-methylphenyl)-2,2-dimethylpentanoic acid] |  | EC50: 10 to 100 nM
8 | CC[C@@H]1CN(Cc2cc([C@H](CC(=O)O)c3ccc4c(nnn4CC)c3F)ccc2C)Cc2ccccc2O1 (relative stereo) [compound 182, rel-(S)-3-(3-(((R)-2-Ethyl-2,3-dihydrobenzo[f][1,4]oxazepin-4(5H)-yl)methyl)-4-methylphenyl)-3-(1-ethyl-4-fluoro-1H-benzo[d][1,2,3]triazol-5-yl)propanoic acid] | 100 to 1000 nM | 
9 | Cc1ccc([C@H](CC(=O)O)c2ccc3c(nnn3C)c2C)cc1CN1CCCC(n2cccn2)C1 (single isomer, unassigned) [compound 159] | 1000 to 10000 nM | 
10 | CC[C@@H]1CN(Cc2cc([C@@H](c3ccc4c(nnn4C)c3C)C(C)(C)C(=O)O)ccc2C)Cc2ncccc2O1 [Example 218, (S)-3-(1,4-Dimethyl-1H-benzo[d][1,2,3]triazol-5-yl)-3-(3-(((R)-2-ethyl-2,3-dihydropyrido[2,3-f][1,4]oxazepin-4(5H)-yl)methyl)-4-methylphenyl)-2,2-dimethylpropanoic Acid, Trifluoroacetate] | 1 to 10 nM | 
11 | Cc1ccc(C(CC(=O)O)c2ccc3c(nnn3C)c2C)cc1Cc1cnnn1CC1CCCCC1 (stereo not shown) [Example 128, 3-(3-((1-(Cyclohexylmethyl)-1H-1,2,3-triazol-5-yl)methyl)-4-methylphenyl)-3-(1,4-dimethyl-1H-benzo[d][1,2,3]triazol-5-yl)propanoic acid] | 1000 to 10000 nM | 
12 | Cc1ccc(C(CC(=O)O)c2ccc3c(nnn3C)c2C)cc1CN1Cc2ccccc2OC2(CCC2)C1 (stereo not shown) [Example 244, 3-(3-((3H-Spiro[benzo[f][1,4]oxazepine-2,1′-cyclobutan]-4(5H)-yl)methyl)-4-methylphenyl)-3-(1,4-dimethyl-1H-benzo[d][1,2,3]triazol-5-yl)propanoic Acid] | 10 to 100 nM | 
13 | Cc1ccc([C@H](c2ccc3c(nnn3C)c2C)C(C)(C)C(=O)O)cc1Cc1cnnn1CC1CCCCCC1 (single isomer, unassigned) [Example 242] | 10 to 100 nM | 
14 | CC[C@@H]1CN(Cc2cc(C(CCc3cn(CC)nn3)C(C)(C)C(=O)O)ccc2C)Cc2ncccc2O1 (single isomer, unassigned) [Example 251] |  | EC50: 1 to 10 nM
15 | CCC1CN(Cc2cc(C(CC(=O)O)c3cc(OC)c4c(c3)nnn4C)ccc2C)Cc2ccccc2O1 (stereo not shown) [compound 46] | 100 to 1000 nM | 
16 | Cc1ccc(C(c2ccc3c(nnn3C)c2C)C(C)(C)C(=O)O)cc1Cn1ccnc1CC1CCCCC1 (stereo not shown) [Example 143, 3-(3-((2-(Cyclohexylmethyl)-1H-imidazol-1-yl)methyl)-4-methylphenyl)-3-(1,4-dimethy-1H-benzo[d][1,2,3]triazol-5-yl)-2,2-dimethylpropanoic acid, trifluoroacetic acid salt] | 1000 to 10000 nM | 
17 | CC[C@@H]1CN(Cc2cc([C@@H](c3ccc4c(nnn4C)c3C)C(C)(C)C(=O)O)ccc2C)Cc2ccccc2O1 [Example 26, (S)-3-(1,4-Dimethyl-1H-benzo[d][1,2,3]triazol-5-yl)-3-(3-(((R)-2-ethyl-2,3-dihydrobenzo[f][1,4]oxa-zepin-4(5H)-yl)methyl)-4-methylphenyl)-2,2-dimethylpropanoic acid, trifluoroacetic acid salt] | 1 to 10 nM | 
18 | CC[C@@H]1CN(Cc2cc(C(CC(=O)O)c3ccc4c(nnn4C)c3C)ccc2C)Cc2cc(F)ccc2O1 (stereo partly drawn) [Example 78, 3-(1,4-Dimethyl-1H-benzo[d][1,2,3]triazol-5-yl)-3-(3-(((R)-2-ethyl-7-fluoro-2,3-dihydrobenzo[f][1,4]oxazepin-4(5H)-yl)methyl)-4-methylphenyl)propanoic acid, formic acid salt] | 1000 to 10000 nM | 
19 | Cc1ccc(C(CC(=O)O)c2ccc3c(nnn3C)c2C)cc1CN1Cc2cc(C#N)ccc2OC(C)(C)C1 (single isomer, unassigned) [Example 172] |  | EC50: 10 to 100 nM
20 | CC[C@@H]1CN(Cc2cc(C(CC(=O)O)c3ccc4c(nnn4C)c3C)ccc2C)Cc2ccc(F)cc2O1 (stereo partly drawn) [Example 75, 3-(1,4-Dimethyl-1H-benzo[d][1,2,3]triazol-5-yl)-3-(3-(((R)-2-ethyl-8-fluoro-2,3-dihydrobenzo[f][1,4]oxazepin-4(5H)-yl)methyl)-4-methylphenyl)propanoic Acid, Formic Acid Salt] | 100 to 1000 nM | 
21 | Cc1ccc(C(c2ccc3c(nnn3C)c2C)C(C)(C)C(=O)O)cc1Cc1cnnn1CC1CCCCCC1 (single isomer, unassigned) [Example 241] | < 1 nM | 
22 | Cc1ccc(C(c2ccc3c(nnn3C)c2C)C(C)(C)C(=O)O)cc1Cn1ccnc1CC1CCCCCC1 (stereo not shown) [Example 131, 3-(3-((2-(Cycloheptylmethyl)-1H-imidazol-1-yl)methyl)-4-methylphenyl)-3-(1,4-dimethyl-1H-benzo[d][1,2,3]triazol-5-yl)-2,2-dimethylpropanoic acid] | 100 to 1000 nM | 
23 | CC[C@@H]1CN(Cc2cc(C(c3ccc4c(nnn4C)c3C)C(C)(C)C(=O)O)ccc2C)Cc2cc(F)ccc2O1 (stereo partly drawn) [Example 32, 3-(1,4-Dimethyl-1H-benzo[d][1,2,3]triazol-5-yl)-3-(3-(((R)-2-ethyl-7-fluoro-2,3-dihdyrobenzo[f][1,4]oxaz-epin-4(5H)-yl)methyl)-4-methylphenyl)-2,2-dimethylpropanoic acid, formic acid salt] | 1 to 10 nM | 
24 | Cc1ccc(C(CC(=O)O)c2ccc3c(nnn3C)c2C)cc1CN1Cc2ccccc2OC(C(C)C)C1 (stereo not shown) [Example 72, 3-(1,4-dimethyl-1H-benzo[d][1,2,3]triazol-5-yl)-3-(3-((2-isopropyl-2,3-dihydrobenzo[f][1,4]oxazepin-4(5H)-yl)methyl)-4-methylphenyl)propanoic acid, formic acid salt] | 1000 to 10000 nM | 
25 | CCn1nnc2c(F)c([C@H](c3ccc(C)c(CN4Cc5ncccc5OC(C)(C)C4)c3)[C@@H](C)C(=O)O)ccc21 [Example 190, (2R,3S)-3-(3-((2,2-Dimethyl-2,3-dihydropyrido[2,3-f][1,4]oxazepin-4(5H)-yl)methyl)-4-methylphenyl)-3-(1-ethyl-4-fluoro-1H-benzo[d][1,2,3]triazol-5-yl)-2-methylpropanoic Acid] | 1 to 10 nM | 
26 | CCC1CCC(Cc2nccn2Cc2cc(C(CC(=O)O)c3ccc4c(nnn4C)c3C)ccc2C)CC1 (stereo not shown) [Example 132, 3-(1,4-Dimethyl-1H-benzo[d][1,2,3]triazol-5-yl)-3-(3-((2-((4-ethylcyclohexyl)methyl)-1H-imidazol-1-yl)methyl)-4-methylphenyl)propanoic Acid] | 1000 to 10000 nM | 
27 | CC[C@@H]1CN(Cc2cc(C(c3ccc4c(nnn4C)c3C)C(C)(C)C(=O)O)ccc2C)Cc2c(F)cccc2O1 (stereo partly drawn) [Example 31, 3-(1,4-Dimethyl-1H-benzo[d][1,2,3]triazol-5-yl)-3-(3-(((R)-2-ethyl-6-fluoro-2,3-dihydrobenzo[f][1,4]oxazepin-4(5H)-yl)methyl)-4-methylphenyl)-2,2-dimethylpropanoic Acid, Formic Acid Salt] | < 1 nM | 
28 | Cc1ccc(C(CC(=O)O)c2ccc3c(nnn3C)c2C)cc1Cn1ccnc1CC1CCCCCC1 (stereo not shown) [Example 146, 3-(3-((2-(Cycloheptylmethyl)-1H-imidazol-1-yl)methyl)-4-methylphenyl)-3-(1,4-dimethyl-1H-benzo[d][1,2,3]triazol-5-yl)propanoic acid, formic acid salt] | 10 to 100 nM | 
